One may read the IC50 as the midpoint of a concentration-inhibition curve. A lower IC50 goes with higher potency.

The target of experiment [1] is T1, Sphingosine 1-phosphate receptor 1 (S1PR1) (Homo sapiens, UniProt P21453, M124V).
T1 construct: HiBiT-tagged human S1PR1 Val124 mutant in HEK293 cells
Kind of experiment: functional reversibility assays (internalization, cAMP). Type of experiment: cell-based.

The target in experiment [2] is T2, Sphingosine 1-phosphate receptor 1 (S1PR1) (Homo sapiens, UniProt P21453).
T2 construct: human S1PR1 in HEK293 cell membranes
Briefly: GTP binding assay; also functional reversibility and washout dissociation half-life […] h. In kind it is biochemical.

T2 sequence (P21453 whole entry): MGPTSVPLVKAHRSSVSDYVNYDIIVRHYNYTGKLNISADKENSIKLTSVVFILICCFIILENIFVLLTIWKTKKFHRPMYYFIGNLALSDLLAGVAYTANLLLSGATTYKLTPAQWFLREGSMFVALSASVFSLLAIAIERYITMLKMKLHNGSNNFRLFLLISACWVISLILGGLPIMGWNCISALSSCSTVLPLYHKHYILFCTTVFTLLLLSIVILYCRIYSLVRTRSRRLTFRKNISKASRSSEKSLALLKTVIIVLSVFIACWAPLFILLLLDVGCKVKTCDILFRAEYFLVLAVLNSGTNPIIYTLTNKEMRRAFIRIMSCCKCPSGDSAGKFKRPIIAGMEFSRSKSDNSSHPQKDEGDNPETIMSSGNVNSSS
T1 sequence (P21453 whole entry M124V): as the sequence (P21453 whole entry) above, with M124V counted along it

Turning to `CCN(c1ccc(Cl)c(C(F)(F)F)c1)C(C)c1ccc(C)c(CN2CC(C(=O)O)C2)c1` (racemic) [KSI-6666], the “functional reversibility assays (internalization, cAMP)” value in experiment [1] is listed as “in the Val124 mutant, pre-bound KSI-6666 was almost completely replaced by the added agonist”. The compound further displayed an IC50 in experiment [2] of 6.4 nM.

The values above are taken from article PMC11271513, “Pseudoirreversible inhibition elicits persistent efficacy of a sphingosine 1-phosphate receptor 1 antagonist” (Nature Communications, 2024).
